Laboratory results from patent US10106515B2, “1-(cyclopent-2-en-1-yl)-3-(2-hydroxy-3-(arylsulfonyl)phenyl)urea derivatives as CXCR2 inhibitors” (GLAXOSMITHKLINE INTELLECTUAL PROPERTY DEVELOPMENT LIMITED, priority 2014, dated 2018).
Where a name gives a salt, the structure may show the parent alone. Read-outs that look alike come from different tables or passages of the source.

Biological target: T1, recombinant human CXCR2 (Homo sapiens, UniProt P25025)
T1 construct: TEV protease site; Gal4-VP16 transcription factor
T1 sequence (P25025 1-360): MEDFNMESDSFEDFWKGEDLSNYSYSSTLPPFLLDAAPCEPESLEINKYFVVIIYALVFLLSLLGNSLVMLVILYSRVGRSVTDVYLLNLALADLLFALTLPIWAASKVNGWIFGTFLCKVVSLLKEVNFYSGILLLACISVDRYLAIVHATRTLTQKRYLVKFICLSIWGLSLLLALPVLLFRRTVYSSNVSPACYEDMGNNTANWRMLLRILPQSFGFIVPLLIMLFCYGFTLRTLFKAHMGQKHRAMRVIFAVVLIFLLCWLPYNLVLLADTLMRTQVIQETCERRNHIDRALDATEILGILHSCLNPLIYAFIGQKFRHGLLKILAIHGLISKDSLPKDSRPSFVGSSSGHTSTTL
Experiment: CXCR2 Tango assay
Format: cell-based
Details: mean pIC50 of multiple test results, stimulated with 80 nM hCXCL1, reporter gene blue/green emission ratio
Excerpt: The assay measures ligand-induced activation of the receptor CXCR2 in a stable cell line containing the recombinant human CXCR2 linked to a TEV protease site and a Gal4-VP16 transcription factor (Invitrogen). Ligand binding to the receptor results in the recruitment of arrestin proteins (tagged with protease) to the receptor and triggers the release of a tethered transcription factor. The transcription factor enters the nucleus and activates the transcription of the reporter gene. The ability of a compound to inhibit CXCR2 activation is indirectly assessed by measuring the reporter gene activity.
A vial of cryopreserved cells was removed from liquid nitrogen and rapidly thawed in a water bath at 37° C. with gentle agitation. The contents of the vial were transferred drop-wise into Thawing Medium in a sterile 15 ml conical tube and then centrifuged at 1000 rpm for 4-5 min. Then the cell pellets were resuspended in Assay Medium at a density of ˜200,000 cells/ml. All test compounds were dissolved in DMSO at a concentration of 10 mM and were prepared in 100% DMSO to provide 10 point dose response curves. A reference CXCR2 antagonist was added to wells in row 2, columns 1-5 & 7-11. Exemplified compounds 1-4, 7, 8-10, 13-22, 24-26, 28-30, 32, 33, 36, 37, 40, 42-44. 95-110, 115-118, 120, 121, 125, 126, 129-134, 137, 138, 140, 142, 147-149, 153-157, 159-162, 163-166, 168, 170, 172, 174-180 and 202 were tested using the CXCR2 antagonist sodium 3-chloro-6-(3-(2,3-dichlorophenyl)ureido)-2-sulfamoylphenolate as reference compound (Reference Compound 1) (published International patent application WO2002/079122). […] Test compounds were added to wells in row 2, columns 13-17 & 19-23 and rows 3-15, columns 1-5 & 7-11/13-17 & 19-23 (columns 6 and 18 as positive controls and un-stimulated controls respectively; columns 12 and 24 as cell-free control). Compounds in solution were added to the assay plate (Greiner 781090) using an Echo (Labcyte) concentration-response program (50 nl/well). The cell-free, un-stimulated and positive controls were loaded with 50 nl/well pure DMSO to ensure that the DMSO concentration was constant across the plate for all assays. Using Multi-drop Combi (Thermo) with standard cassette, 50 μl of Assay Medium was added to each well in the cell-free controls (columns 12 and 24); 50 μl of the cell suspension without hCXCL1 (a CXCR2 ligand) was added to each well in column 18 of the plate (˜10,000 cells per well); and 50 μl of the cell suspension with 80 nM hCXCL1 was added to the rest of wells of the plate (˜10,000 cells per well). The cells were incubated overnight at 37° C./5% CO2. 10 μl of 6× substrate mixture (LiveBLAzer™-FRET B/G substrate (CCF4-AM) Cat # K1096 from Invitrogen, Inc.) was added to each well using Multi-drop Combi (Thermo) with small-tube cassette and the plates incubated at room temperature for 2 h in the dark. The plate was finally read on EnVision using one excitation channel (409 nm) and two emission channels (460 nm and 530 nm).
The blue/green emission ratio (460 nm/530 nm) was calculated for each well, by dividing the background-subtracted Blue emission values by the background-subtracted Green emission values. The dose response curve was based on sigmoidal dose-response model. All ratio data was normalized based upon the maximum emission ratio of positive control (hCXCL1) and minimum emission ratio of negative control (DMSO) on each plate. The intrinsic activity (IA) of each compound would be the normalized percentage of its maximum response after curve fitting.
All exemplified compounds (except for Compounds 203 and 204) were tested in the CXCR2 Tango assay or a similar assay described above. The data mentioned below represents a mean pIC 50 value of multiple test results. It is understood that the data illustrated below may have reasonable variation depending on the specific conditions and procedures used by the person conducting the testing.

[1] = read-out: pIC50 (CXCR2 Tango assay) (converted)

Row | Structure (SMILES) | IC50 [1] [nM] | IC50 (pIC50 (CXCR2 Tango assay)) [nM]
1 | O=C(Nc1ccc(Cl)c(S(=O)(=O)[C@H]2CCOC2)c1O)N[C@@H]1CCC=C1Cl [Compound 166, 1-(4-chloro-2-hydroxy-3-(((S)-tetrahydrofuran-3-yl)sulfonyl)phenyl)-3-((R)-2-chlorocyclopent-2-en-1-yl)urea] | ≤ 1 | 
2 | CC(C)S(=O)(=O)c1c(Cl)ccc(NC(=O)NC2CCC=C2F)c1O (stereo not shown) [Compound 22, 1-(4-chloro-2-hydroxy-3-(isopropylsulfonyl)phenyl)-3-(2-fluorocyclopent-2-en-1-yl)urea] | ≤ 10 | 
3 | CC1=CCC[C@H]1NC(=O)Nc1ccc(Cl)c(S(=O)(=O)C2CCN(C3CCC3)CC2)c1O [Compound 83, (R)-1-(4-chloro-3-((1-cyclobutylpiperidin-4-yl)sulfonyl)-2-hydroxyphenyl)-3-(2-methylcyclopent-2-en-1-yl)urea trifluoroacetic acid salt] |  | ≤ 1
4 | O=C(Nc1ccc(Cl)c(S(=O)(=O)[C@H]2C[C@H](N3CCCC3)C2)c1O)NC1C=CCC1 (stereo partly drawn) [Compound 174, 1-(4-chloro-2-hydroxy-3-((trans-3-(pyrrolidin-1-yl)cyclobutyl)sul-fonyl)phenyl)-3-(cyclopent-2-en-1-yl)urea] | ≤ 10 | 
5 | O=C(O)C(F)(F)F.[2H]C1(S(=O)(=O)c2c(Cl)ccc(NC(=O)N[C@@H]3CCC=C3Cl)c2O)CCN(C2CCC2)CC1 [Compound 169, (R)-1-(4-chloro-3-((1-cyclobutylpiperidin-4-yl)sulfonyl)-2-hydroxyphenyl)-3-(2-chlorocyclopent-2-en-1-yl)urea-d1, trifluoroacetic acid salt] | ≤ 1 | 
6 | CC1=CCCC1NC(=O)Nc1ccc(Cl)c(S(=O)(=O)[C@H]2CC[C@@H](N(C)C)CC2)c1O (stereo partly shown) [Compound 129, 1-(4-chloro-3-(((1s,4s)-4-(dimethylamino)cyclohexyl)sulfonyl)-2-hydroxyphenyl)-3-(2-methylcyclopent-2-en-1-yl)urea, trifluoroacetic acid salt] | ≤ 1 | 
7 | CCO[C@H]1C[C@@H](S(=O)(=O)c2c(Cl)ccc(NC(=O)N[C@@H]3CCC=C3Cl)c2O)C1 [Compound 125, 1-(4-chloro-3-(((1s,3s)-3-ethoxycyclobutyl)sulfonyl)-2-hydroxyphenyl)-3-(2-chlorocyclopent-2-en-1-yl)urea] | ≤ 10 | 
8 | CC1=CCC[C@H]1NC(=O)Nc1ccc(Cl)c(S(=O)(=O)[C@H]2C[C@H](C(F)F)C2)c1O [Compound 48, 1-(4-chloro-3-((trans-3-(difluoromethyl)cyclobutyl)sulfonyl)-2-hydroxyphenyl)-3-((R)-2-methylcyclopent-2-en-1-yl)urea] | ≤ 1 | 
9 | CC(C)(F)S(=O)(=O)c1c(Cl)ccc(NC(=O)NC2CCC=C2Cl)c1O (stereo not shown) [Compound 15, 1-(4-chloro-3-((2-fluoropropan-2-yl)sulfonyl)-2-hydroxyphenyl)-3-(2-chlorocyclopent-2-en-1-yl)urea] | ≤ 10 | 
10 | CC(C)(CF)S(=O)(=O)c1c(Cl)ccc(NC(=O)NC2C=CCC2)c1O (stereo not shown) [Compound 9, 1-(4-chloro-3-((1-fluoro-2-methylpropan-2-yl)sulfonyl)-2-hydroxyphenyl)-3-(cyclopent-2-en-1-yl)urea] | ≤ 10 | 
11 | CC1=CCCC1NC(=O)Nc1ccc(Cl)c(S(=O)(=O)C(C)(F)F)c1O (stereo not shown) [Compound 106, 1-(4-chloro-3-((1,1-difluoroethyl)sulfonyl)-2-hydroxyphenyl)-3-(2-methylcyclopent-2-en-1-yl)urea] | ≤ 1 | 
12 | O=C(Nc1ccc(Cl)c(S(=O)(=O)[C@H]2C[C@H](N3CCCC3)C2)c1O)NC1CCC=C1Cl (stereo partly drawn) [Compound 177, 1-(4-chloro-2-hydroxy-3-((trans-3-(pyrrolidin-1-yl)cyclobutyl)sul-fonyl)phenyl)-3-(2-chlorocyclopent-2-en-1-yl)urea, trifluoroacetic acid salt] | ≤ 10 | 
13 | CC1=CCCC1NC(=O)Nc1ccc(Cl)c(S(=O)(=O)[C@H]2CCOC2)c1O (stereo partly drawn) [Compound 99, 1-(4-chloro-2-hydroxy-3-(((S)-tetrahydrofuran-3-yl)sulfonyl)phenyl)-3-(2-methylcyclopent-2-en-1-yl)urea] | ≤ 10 | 
14 | CO[C@@H]1CC[C@@H](S(=O)(=O)c2c(Cl)ccc(NC(=O)N[C@@H]3CCC=C3C)c2O)C1 (stereo in doubt) [Compound 143, trans-1-(4-chloro-2-hydroxy-3-((3-methoxycyclopent-yl)sulfonyl)phenyl)-3-((R)-2-methylcyclopent-2-en-1-yl)urea] | ≤ 1 | 
15 | O=C(Nc1ccc(Cl)c(S(=O)(=O)[C@H]2C[C@@H](O)C2)c1O)N[C@@H]1CCC=C1Cl [Compound 162, 1-(4-chloro-2-hydroxy-3-((cis-3-hydroxycyclobutyl)sulfonyl)phenyl)-3-((R)-2-chlorocyclopent-2-en-1-yl)urea] | ≤ 1 | 
16 | CN(C)[C@H]1C[C@H](S(=O)(=O)c2c(Cl)ccc(NC(=O)NC3CCC=C3Cl)c2O)C1 (stereo partly drawn) [Compound 134, 1-(4-chloro-3-((trans-3-(dimethylamino)cyclobutyl)sulfonyl)-2-hydroxyphenyl)-3-(2-chlorocyclopent-2-en-1-yl)urea] | ≤ 10 | 
17 | CC1=CCC[C@H]1NC(=O)Nc1ccc(Cl)c(S(=O)(=O)C2CCC[C@@H]2O)c1O (mixture of isomers) [Compound 51, (±)trans-1-(4-chloro-2-hydroxy-3-((2-hydroxycyclopent-yl)sulfonyl)phenyl)-3-((R)-2-methylcyclopent-2-en-1-yl)urea, trifluoroacetic acid salt] | ≤ 1 | 
18 | CC1=C(Cl)CCC1NC(=O)Nc1ccc(Cl)c(S(=O)(=O)C(C)C)c1O (stereo not shown) [Compound 16, 1-(4-chloro-2-hydroxy-3-(isopropylsulfonyl)phenyl)-3-(3-chloro-2-methylcyclopent-2-en-1-yl)urea] | ≤ 10 | 
19 | CC(F)(F)S(=O)(=O)c1c(Cl)ccc(NC(=O)NC2CCC=C2Cl)c1O (stereo not shown) [Compound 37, 1-(4-chloro-3-((1,1-difluoroethyl)sulfonyl)-2-hydroxyphenyl)-3-(2-chlorocyclopent-2-en-1-yl)urea] | ≤ 1 | 
20 | CN(C)C[C@H]1C[C@@H](S(=O)(=O)c2c(Cl)ccc(NC(=O)NC3CCC=C3Cl)c2O)C1 (stereo partly drawn) [Compound 132, 1-(4-chloro-3-((cis-3-((dimethylamino)methyl)cyclobutyl)sulfonyl)-2-hydroxyphenyl)-3-(2-chlorocyclopent-2-en-1-yl)urea, trifluoroacetic acid salt] | ≤ 10 | 
21 | CCC1=CCCC1NC(=O)Nc1ccc(Cl)c(S(=O)(=O)C(C)C)c1O (stereo not shown) [Compound 120, 1-(4-chloro-2-hydroxy-3-(isopropylsulfonyl)phenyl)-3-(2-ethylcyclopent-2-en-1-yl)urea] | ≤ 10 | 
22 | CC1=CCC[C@H]1NC(=O)Nc1ccc(Cl)c(S(=O)(=O)N2CC(F)C2)c1O [Compound 86, (R)-1-(4-chloro-3-((3-fluoroazetidin-1-yl)sulfonyl)-2-hydroxyphenyl)-3-(2-methylcyclopent-2-en-1-yl)urea trifluoroacetic acid salt] | ≤ 10 | 
